Values quoted from earlier work, collected in patent publication US20110245202A1, “PHARMACEUTICAL COMPOSITION FOR THE TREATMENT OF RHINITIS” (priority 2003, published 2011).

Settings: fraction of the action of naturally occurring (1R,2S)-ephedrine

## CN[C@H](C)[C@@H](O)c1ccccc1 [(1S,2R)-ephedrine]
  pharmacological action relative to the natural form (−)-ephedrine: approximately one third
